# Laboratory results published in patent US11833139B2 (priority 2019, dated 2023).
# Where two headings read alike, the source gives them in different places.
# Key:
# A. baumannii HUMC1 = test: MIC by broth microdilution (CLSI), carbapenem-resistant clinical isolate HUMC1; type: cell-based, Acinetobacter baumannii; conditions: Acinetobacter baumannii, read-out: MIC
# Protocol: (§1) Two A. baumannii isolates were used in this example: HUMC1 (BV374) (Spellberg/Luna Laboratory, University of Southern California, Los Angeles, Calif.) and UNT091-1 (BV378) (UNT Health Science Center, Fort Worth, Tex.). The HUMC1 isolate is a hyper-virulent drug-resistant clinical strain isolated from a blood-stream infection. […] The isolates were stored at −80° C. as 20% (v/v) glycerol cultures.
# (§2) MICs were determined by the broth microdilution method following the guidelines of the Clinical Laboratory Standards Institute (CLSI) using RPMI supplemented with […] cationic-adjusted Muller Hinton broth (CA-MHB) as assay medium. To prepare the bacterial inocula, 3-5 colonies of bacterial strains from over-night growth on ChromAgar orientation plates (CHROMagar Cat. No. RT412) were suspended in 5 mL saline. The turbidity of the bacterial suspension was adjusted to 0.5 McFarland units (equal to an optical density at 610 nm (OD610) to 0.08-0.1). This suspension was diluted 200-fold in RPMI supplemented with 10% (v/v) FCS to reach a final concentration of […] colony forming units (CFU)/mL and was used to inoculate the microtiter plates.
# (§3) Serial 2-fold dilutions of the antibiotics were prepared in a separate 96-well plate polypropylene U-bottom plate (Ratiolab Cat. No. 6018111) in RPMI supplemented with 10% (v/v) FCS at 10-fold of the final test concentrations and 10 μl of the dilutions were transferred to new 96-well polystyrene U-bottom microtiter plates with a parafilm plate cover.
# (§4) The plates were then inoculated with 90 μL per well of the prepared bacterial suspensions in using a multichannel pipette (Eppendorf), with the first column containing 4 wells each for growth control (no antibiotic). […] The MIC was recorded as the lowest concentration of the compound that inhibited bacterial growth by visual inspection. MICs were determined at least in duplicates and in the case of variations, the higher values are provided.
# A. baumannii UNT091 = test: MIC by broth microdilution (CLSI), carbapenem-resistant clinical isolate UNT091; type: cell-based, Acinetobacter baumannii; conditions: Acinetobacter baumannii, read-out: MIC
# Protocol: as §1, §2, §3, §4
# A. baumannii ACC00445 = test: Neutropenic sepsis mouse model (CD-1 mice, IP infection); type: in vivo; conditions: IV at 1 h and 5 h post-infection, 10 mg/kg
# Source text: The CD-1 mice were IP infected with A. baumannii ACC00445 strain in the presence of […].
# [1] = HUMC1, HUMC1, RPMI plus 10% FCS (Table 1)
# [2] = UNT091, UNT091, CA-MHB (Table 1)
# [3] = UNT091, UNT091, RPMI plus 10% FCS (Table 1)
SMILES,"MIC (A. baumannii HUMC1; HUMC1, HUMC1, CA-MHB (Table 1))",MIC (A. baumannii HUMC1; [1]),MIC (A. baumannii UNT091; [2]),MIC (A. baumannii UNT091; [3]),"MIC (A. baumannii HUMC1; HUMC1, HUMC1 parental strain, RPMI + 10% FCS (Table 2))","MIC (A. baumannii UNT091; UNT091, UNT091 parental strain, RPMI + 10% FCS (Table 2))",protection against sepsis (A. baumannii ACC00445)
CO/N=C(\C(=O)N[C@@H]1C(=O)N2C(C(=O)O)=C(COC(C)=O)CS[C@H]12)c1csc(N)n1 [cefotaxime],> 64 µg/mL,> 64 µg/mL,> 64 µg/mL,> 64 µg/mL,–,–,–
CO[C@H]1/C=C/O[C@@]2(C)Oc3c(C)c(O)c4c(O)c(c(/C=N/N5CCN(C)CC5)c(O)c4c3C2=O)NC(=O)/C(C)=C\C=C\[C@H](C)[C@H](O)[C@@H](C)[C@@H](O)[C@@H](C)[C@H](OC(C)=O)[C@@H]1C [rifampin],16 µg/mL,16 µg/mL,8 µg/mL,16 µg/mL,32 µg/mL,2 µg/mL,does not
